The values that follow come from US8138168B1 (Takeda Pharmaceutical Company Limited, priority 2007, dated 2012).

By pIC50 is commonly meant the IC50 on a negative log10 scale, so that one unit is a factor of ten.

pIC50: −log10 of the molar value.

For the assay, the target named is T1, Recombinant human renin (Homo sapiens, UniProt P00797).
T1 construct: isolate the active form (residues 67-406); made in house; host or cells: FreeStyle 293-F cells (transient expression of pcDNA3.1(+)/hREN)
T1 sequence (P00797 67-406): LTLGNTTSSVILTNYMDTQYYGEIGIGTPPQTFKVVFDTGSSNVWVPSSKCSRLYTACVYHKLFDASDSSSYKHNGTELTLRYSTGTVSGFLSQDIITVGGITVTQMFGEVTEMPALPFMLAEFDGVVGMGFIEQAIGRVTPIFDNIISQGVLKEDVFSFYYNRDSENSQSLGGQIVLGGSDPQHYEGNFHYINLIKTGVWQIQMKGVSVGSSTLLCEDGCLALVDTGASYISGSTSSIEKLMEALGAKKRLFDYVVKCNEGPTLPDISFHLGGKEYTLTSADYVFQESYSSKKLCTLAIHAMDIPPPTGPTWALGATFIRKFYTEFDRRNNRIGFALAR
The experiment in a line: In vitro enzymatic activity assay of renin inhibitors (fluorogenic peptide substrate). Type of assay: biochemical. The following applies: read-out: IC50 of Exemplified Compounds Against Renin. On the procedure:
Test compounds in varying concentrations may be reacted with recombinant human renin in the presence of substrate, e.g., QXL520-γ-Abu-[…](HiLyteFluo488)-Arg-OH (Anaspec, San Jose, Calif.). […] Inhibition constants (IC50) may be calculated by non-linear curve fitting of the compound concentrations and fluorescence intensities to the standard IC50 equation.
Solutions of test compounds in varying concentrations mM final concentration) are prepared in dimethyl sulfoxide (DMSO) and then diluted into assay buffer comprising 50 mM Hepes, 1 mM EDTA, 1 mM DTT, 0.1 mg/mL BSA, 0.01% Brij35, pH 7.4. Alternatively, the assay can be performed with a high BSA concentration, wherein the buffer contains an additional 2% BSA.
Recombinant human renin (3 nM final concentration) is added to the dilutions and pre-incubated with the compounds for 10 minutes at 37° C. […] After pre-incubation, the reaction is initiated with of substrate QXL520-γ-Abu-[…](HiLyteFluo488)-Arg-OH (Anaspec, San Jose, Calif.). The final DMSO in the assay is 5%. The total volume of the reaction mixture is 20 μL, which can be placed on Greiner 384-well small volume plates.
The fluorescence intensity is determined upon the addition of substrate and determined again after incubation at 37° C. for one hour. The fluorescence intensity of a blank (no inhibition) using vehicle alone is also determined. Renin activity is linearly proportional to the change in fluorescence observed (final-initial).

As to `CCCc1ccccc1NC(=O)NC[C@@H](N)CC(=O)N1CCC[C@@H](c2nc3ccccc3n2CCCOC)C1` [Compound 286, 1-((S)-2-amino-4-((R)-3-(1-(3-methoxypropyl)-1H-benzo[d]imidazol-2-yl)piperidin-1-yl)-4-oxobutyl)-3-(2-propylphenyl)urea], the pIC50 is 6.00 to 7.00.

As for `CC(=O)NCCn1c([C@@H]2CCCN(C(=O)C[C@H](N)Cc3ccc(-c4ccc5c(c4)NC(=O)C5)cc3)C2)nc2ccccc21` [Compound 466, N-(2-(2-((R)-1-((R)-3-amino-4-(4-(2-oxoindolin-6-yl)phenyl)butanoyl)piperidin-3-yl)-1H-benzo[d]imidazol-1-yl)ethyl)acetamide], the pIC50 is 6.00 to 7.00.

Regarding `COCCCn1c([C@@H]2CCCN(C(=O)[C@@H]3CN(C(=O)c4ccccc4C(=O)OC)C[C@H]3N)C2)nc2ccccc21` [Compound 424, methyl 2-((3S,4R)-3-amino-4-((R)-3-(1-(3-methoxypropyl)-1H-benzo[d]imidazol-2-yl)piperidine-1-carbonyl)pyrrolidine-1-carbonyl)benzoate], the negative logarithm of the IC50 (pIC50) was below 6.00.

Consider `COCCCn1c([C@@H]2CCCN(C(=O)[C@@H]3CN(S(=O)(=O)c4ccc(OC)cc4)C[C@H]3N)C2)nc2ccccc21` [Compound 369, ((3R,4S)-4-amino-1-(4-methoxyphenylsulfonyl)pyrrolidin-3-yl)((R)-3-(1-(3-methoxypropyl)-1H-benzo[d]imidazol-2-yl)piperidin-1-yl)methanone], for which the negative logarithm of the IC50 (pIC50) is 6.00 to 7.00.

As for `COCCCn1c([C@@H]2CCCN(C(=O)C[C@H](N)CNC(=O)c3ccc(-c4ccccc4)s3)C2)nc2ccccc21` [Compound 252, N-((S)-2-amino-4-((R)-3-(1-(3-methoxypropyl)-1H-benzo[d]imidazol-2-yl)piperidin-1-yl)-4-oxobutyl)-5-phenylthiophene-2-carboxamide], the pIC50 is above 7.00.

With `COCCCn1c([C@@H]2CCCN(C(=O)C[C@H](N)CNC(=O)N3CCOCC3)C2)nc2ccccc21` [Compound 328, N-((S)-2-amino-4-((R)-3-(1-(3-methoxypropyl)-1H-benzo[d]imidazol-2-yl)piperidin-1-yl)-4-oxobutyl)morpholine-4-carboxamide], the pIC50 is below 6.00.

Consider `COCCCn1c([C@@H]2CCCN(C(=O)[C@@H]3CN(S(=O)(=O)c4ccc(Cl)cc4)C[C@H]3N)C2)nc2ccccc21` [Compound 370, ((3R,4S)-4-amino-1-(4-chlorophenylsulfonyl)pyrrolidin-3-yl)((R)-3-(1-(3-methoxypropyl)-1H-benzo[d]imidazol-2-yl)piperidin-1-yl)methanone], for which the negative-log IC50 (pIC50) is 6.00 to 7.00.

Turning to `COCCCn1c(C2CCCN(C(=O)C[C@H](N)Cc3ccc4ccccc4c3)C2)nc2ccc(Cl)nc21` (stereo partly drawn) [Compound 102, (R)-3-amino-1-(3-(5-chloro-3-(3-methoxypropyl)-3H-imidazo[4,5-b]pyridin-2-yl)piperidin-1-yl)-4-(naphthalen-2-yl)butan-1-one], the negative-log IC50 (pIC50) was below 6.00.

As to `COCCCn1c([C@@H]2CCCN(C(=O)[C@@H]3CN(S(=O)(=O)c4cc(Cl)c(Cl)cc4Cl)C[C@H]3N)C2)nc2ccccc21` [Compound 345, ((3R,4S)-4-amino-1-(2,4,5-trichlorophenylsulfonyl)pyrrolidin-3-yl)((R)-3-(1-(3-methoxypropyl)-1H-benzo[d]imidazol-2-yl)piperidin-1-yl)methanone], the pIC50 is 6.00 to 7.00.

In the case of `COCCCn1c([C@@H]2CCCN(C(=O)C[C@H](N)Cc3ccc(-c4cccnc4Cl)cc3)C2)nc2ccccc21` [Compound 167, (R)-3-amino-4-(4-(2-chloropyridin-3-yl)phenyl)-1-((R)-3-(1-(3-methoxypropyl)-1H-benzo[d]imidazol-2-yl)piperidin-1-yl)butan-1-one], the negative logarithm of the IC50 (pIC50) was above 7.00.

With `COCCCn1c([C@@H]2CCCN(C(=O)C[C@H](N)Cc3ccc4ccccc4c3)C2)nc2cc(C)ccc21` [Compound 105, (R)-3-amino-1((R)-3-(1-(3-methoxypropyl)-5-methyl-1H-benzo[d]imidazol-2-yl)piperidin-1-yl)-4-(naphthalen-2-yl)butan-1-one], the pIC50 is above 7.00.

In the case of `COCCCn1c([C@@H]2CCCN(C(=O)C[C@H](N)Cc3ccc(-c4ccc(C(=O)NCC(C)(C)O)cc4)cc3)C2)nc2ccccc21` [Compound 188, 4′-((R)-2-amino-4-((R)-3-(1-(3-methoxypropyl)-1H-benzo[d]imidazol-2-yl)piperidin-1-yl)-4-oxobutyl)-N-(2-hydroxy-2-methylpropyl)biphenyl-4-carboxamide], the pIC50 is above 7.00.

`COCCCn1c([C@@H]2CCCN(C(=O)C[C@H](N)Cc3ccc(F)c(F)c3)C2)nc2ccccc21` [Compound 76, (R)-3-amino-4-(3,4-difluorophenyl)-1((R)-3-(1-(3-methoxypropyl)-1H-benzo[d]imidazol-2-yl)piperidin-1-yl)butan-1-one]: the pIC50 is 6.00 to 7.00.

As to `COCCCn1c([C@@H]2CCCN(C(=O)C[C@H](N)CNC(=O)Nc3cccc(Oc4ccccc4)c3)C2)nc2ccccc21` [Compound 288, 1-((S)-2-amino-4-((R)-3-(1-(3-methoxypropyl)-1H-benzo[d]imidazol-2-yl)piperidin-1-yl)-4-oxobutyl)-3-(3-phenoxyphenyl)urea], the pIC50 was 6.00 to 7.00.

For the compound `COCCCn1c([C@@H]2CCCN(C(=O)C[C@H](N)Cc3ccc(-c4cccc(OC)c4)cc3)C2)nc2ccccc21` [Compound 158, (R)-3-Amino-4-(3′-methoxybiphenyl-4-yl)-1-((R)-3-(1-(3-methoxypropyl)-1H-benzo[d]imidazol-2-yl)piperidin-1-yl)butan-1-one], the pIC50 is above 7.00.

For the compound `O=C(C1CNC1)N1CCCC(c2nc3ccccc3[nH]2)C1` (stereo not drawn) [Compound 55, (3-(1H-benzo[d]imidazol-2-yl)piperidin-1-yl)(azetidin-3-yl)methanone], the negative logarithm of the IC50 (pIC50) is below 6.00.

Take `COCCCn1c([C@@H]2CCCN(C(=O)CC(N)C3CCNCC3)C2)nc2ccccc21` (stereo partly drawn) [Compound 94, 3-amino-1-((R)-3-(1-(3-methoxypropyl)-1H-benzo[d]imidazol-2-yl)piperidin-1-yl)-3-(piperidin-4-yl)propan-1-one]: the pIC50 is below 6.00.

In the case of `COCCCn1c([C@@H]2CCCN(C(=O)[C@@H]3CN(c4cccc(C#N)c4)C[C@H]3N)C2)nc2ccccc21` [Compound 507], the negative logarithm of the IC50 (pIC50) was 6.00 to 7.00.

With `COCCCn1c([C@@H]2CCCN(C(=O)C[C@H](N)CNC(=O)Nc3cc(C(C)(C)C)ccc3OC)C2)nc2ccccc21` [Compound 268, 1-((S)-2-amino-4-((R)-3-(1-(3-methoxypropyl)-1H-benzo[d]imidazol-2-yl)piperidin-1-yl)-4-oxobutyl)-3-(5-tert-butyl-2-methoxyphenyl)urea], the negative-log IC50 (pIC50) was 6.00 to 7.00.

Consider `COCCCn1c([C@@H]2CCCN(C(=O)[C@@H]3CN(S(=O)(=O)c4cc(Br)ccc4OC)C[C@H]3N)C2)nc2ccccc21` [Compound 401, ((3R,4S)-4-amino-1-(5-bromo-2-methoxyphenylsulfonyl)pyrrolidin-3-yl)((R)-3-(1-(3-methoxypropyl)-1H-benzo[d]imidazol-2-yl)piperidin-l-yl)methanone], for which the pIC50 was below 6.00.

As to `COCCCn1c([C@@H]2CCCN(C(=O)C[C@H](N)Cc3ccc(-c4ccc5c(c4)SCC(=O)N5)cc3)C2)nc2c(C)cccc21` [Compound 496, 7-(4-((R)-2-amino-4-((R)-3-(1-(3-methoxypropyl)-4-methyl-1H-benzo[d]imidazol-2-yl)piperidin-1-yl)-4-oxobutyl)phenyl)-2H-benzo[b][1,4]thiazin-3(4H)-one], the pIC50 was above 7.00.

`COCCCn1c([C@@H]2CCCN(C(=O)C[C@H](N)CNS(=O)(=O)c3cccc(OC)c3)C2)nc2ccccc21` [Compound 315, N-((S)-2-amino-4-((R)-3-(1-(3-methoxypropyl)-1H-benzo[d]imidazol-2-yl)piperidin-1-yl)-4-oxobutyl)-3-methoxybenzenesulfonamide]: the negative logarithm of the IC50 (pIC50) is 6.00 to 7.00.

As for `COCCCn1c([C@@H]2CCCN(C(=O)C[C@H](N)Cc3ccc(-c4ccc(NC(C)=O)cc4)cc3)C2)nc2ccccc21` [Compound 129, N-(4′-((R)-2-amino-4-((R)-3-(1-(3-methoxypropyl)-1H-benzo[d]imidazol-2-yl)piperidin-1-yl)-4-oxobutyl)biphenyl-4-yl)acetamide], the negative-log IC50 (pIC50) was above 7.00.

As for `COCCCn1c([C@@H]2CCCN(C(=O)C[C@H](N)CNC(=O)c3cccc4ccccc34)C2)nc2ccccc21` [Compound 311, N-((S)-2-amino-4-((R)-3-(1-(3-methoxypropyl)-1H-benzo[d]imidazol-2-yl)piperidin-1-yl)-4-oxobutyl)-1-naphthamide], the negative-log IC50 (pIC50) was 6.00 to 7.00.
